Measured values published in PMC11371785 (Frontiers in Pharmacology, 2024).
Marks after values point to notes of the source that are not given here.

Key:
[1] = Weight of experimental animals for toxicity test; conditions: SEM
Experimental: (§1) The negative control group (group a) was treated with 0.2 mL of the vehicle, while the positive control group (group g) was also treated with the 20 mg/kg dosage of cyclophosphamide. […] The blood samples were collected for haematological analysis, while the liver and kidney were also collected for histopathological analysis and fixed in 10% formalin.

liver and kidney of mice = assay: Subacute toxicity test: liver and kidney histopathology; conditions: 20 mg/kg, positive control (group g)
Experimental: as §1
The tissues were sliced into small pieces not more than 4 mm thick and then submerged in 10% formal saline for 24 h to fix, according to the protocols of [Avwioro et al., (2010)] for histopathology investigations. The tissue processing was carried out automatically using an automatic tissue processor (Leica TP 1020) by letting the tissues pass through several reagents: 10% formal saline was used in Stations 1 and 2, and alcohol in Stations 3 through 7 was used to dehydrate the tissues. The tissues were then moved into Stations 10 to 12, which contained wax for infiltration or impregnation, after passing through Stations 8 and 9, which contained xylene for the purpose of […]. Tissues stayed in each station for 1 hour during the 12-h duration of these operations. The tissues were then covered with molten paraffin wax, allowed to cool on ice, and then sectioned at a 4-micrometer interval. These parts were picked up using clean, labeled slides and floated in a water bath set at 55°C. […]

[2] = test system: bone marrow cells of mice; assay: Micronucleus (MN) assay; conditions: SEM
Experimental: as §1
The animals used for the subacute toxicity test were also used for the MN assay because the treatment follows the same procedure, but the positive control, cyclophosphamide (group g) for MN, is a single-dose treatment that was given intraperitoneally. The MN assay was carried out as described by Jain and Pandey ([Jain and Pandey, 2019]), four animals were sacrificed from each group by cervical dislocation, and both femurs were removed. The epiphyses were removed from the femur, and the bone marrow was flushed with fetal bovine serum (FBS) into Eppendorf tubes (1.5 mL). After a light tap to ensure appropriate cell dispersion, it was centrifuged at 2,000 rpm for 5 minutes. The pellet was suspended in another 1 mL of FBS in the Eppendorf tube, thoroughly mixed using a micropipette, and centrifuged once more at the same rate after the supernatant was discarded. Once more, the supernatant was removed, and the pellet was mixed with 0.5 mL of FBS before a few drops of the viscous mixture were dropped on a clean, oil-free slide. This drop was spread on the slide and allowed to air dry.
The slides were stained with 0.4% May-Grunewald stain for 3-4 min and were immediately transferred into another coupling jar containing May-Grunewald and distilled water (ratio 1:1) and allowed to stain for another 3-4 min. The slides were rinsed in distilled water and allowed to dry completely. Then, it was also stained in 5% Giemsa stain for 5 min, rinsed in distilled water, and allowed to dry completely. A minimum of 1,000 cells from each mouse were examined for micronuclei in polychromatic erythrocytes (MNPCE) using a light microscope at a magnification of 1,000X (oil immersion). The relative size of the erythrocytes and the difference in staining between PCEs (bluish-purple) and normochromatic erythrocytes (NCEs, pink-orange) are used to distinguish between them.

Plasmodium berghei ANKA [3] = assay: Mean survival time of P. berghei-infected mice; assay type: in vivo; conditions: 4 days, monitored 30 days, n = 5, ±SEM
Experimental: (§2) Twenty-five (25) albino mice (weighing 22 ± 2 g) were randomly divided into five (5) groups of five animals per group (n = 5). Parasitized blood was obtained from infected donor mouse with rising parasitaemia (≥ 20%) by cardiac puncture and the infected blood was diluted with phosphate saline glucose buffer (PSG-mouse) to attain an estimate of 5 × 10^7 red blood cells per ml. Then, 0.2 mL of inoculum containing 1 × 10^7 infected RBCs was injected into the abdominal cavity of experimental animals by intraperitoneal (ip) injection.
(§3) All drugs were administered orally for 4 days.
The survival rate was monitored from the first day of the treatment to 30 days. Each mouse’s mortality was monitored and recorded in days. The mean survival time (MST) of mice in each group was determined, as shown below. MST=sum of survival time of all mice in a group in days/total number of mice in a group

Plasmodium berghei ANKA [4] = assay: Peter's 4-day suppressive test; assay type: in vivo; conditions: 4 days, D4; for Suppressive parasitemia (%): n = 5, ±SEM
Experimental: as §2, §3
(§4) The chemo-suppressive effect of HA in mice infected with P. berghei was assessed using Peter’s 4-day suppressive test. The mice were infected with the malaria parasite inoculum (1 × 10^7 P.berghei ANKA) on the first day of the experiment (D0) and treated as indicated in the section above on Animal Grouping and Drug Administration after 2 h post-infection. The treatment continues for another three consecutive days. Each mouse’s parasitaemia level was assessed 96 h after infection (D4). Animals in each group had their PCV, rectal temperature, and body weight measured both before and after the experiment.
Parasitaemia was determined by counting the number of infected RBCs (minimum of four fields per slide) using a light microscope with an objective lens magnification power of 1,000x. Percentage parasitaemia and percentage chemo-suppression were calculated using the modified Peters and Robinson formula ([Nyandwaro et al., 2020]): % parasitemia=number of parasitized RBCs/total number of RBC count×100 % chemo−suppression=% parasitemia in negative control− % parasitemia in study group/% parasitemia in negative control×100

[5] = test system: Plasmodium berghei infected mice; assay: Body weight, rectal temperature and packed cell volume in the suppressive test; assay type: in vivo, Mus musculus; conditions: SEM; for Weight (g) initial / Temperature (°C) initial: before the experiment; for Weight (g) initial / Temperature (°C) initial / Weight (g) final / Temperature (°C) final: n = 5; for PCV (%) DAY 0: first day of infection; for Temperature (°C) initial / Temperature (°C) final: rectal; for Percentage change in PCV (%) DAY 0 / Percentage change in temperature (%) / Weight (g) final / PCV (%) DAY 4 / Percentage change in weight (%) / Temperature (°C) final / PCV (%) DAY 9 / Percentage change in PCV (%) DAY 9: 4 days; for Weight (g) final / Temperature (°C) final: after the experiment; for PCV (%) DAY 4: fifth day after infection; for Percentage change in weight (%): infected mice; for PCV (%) DAY 9 / Percentage change in PCV (%) DAY 9: tenth day after infection
Experimental: as §2, §3, §4
Blood samples were taken from each mouse’s tail using heparinized capillary tubes, sealed, and then put into a micro haematocrit centrifuge to calculate the packed cell volume of the blood. After being centrifuged for 5 min at 12,000 rpm, the blood samples’ PCV was calculated using the following formula: Packed Cell Volume=volume of erythrocyes in a given volume of blood/total volume of blood×100
The body weight and rectal temperature of each mouse were also determined using a sensitive digital weighing balance and rectal thermometer, respectively.

[6] = 20 mg/kg/bwt single dose intraperitoneally

## O=P1(N(CCCl)CCCl)NCCCO1 (stereo not shown) [CYP, Cyclophosphamide]
[1]; 20 mg/kg (positive control), n = 5
  Weight (g) final: 24.43 ± 0.25 g
[1]; 20 mg/kg (positive control), toxicity test
  Percentage change in weight (%): −0.50 ± 0.34%
[1]; 20 mg/kg group (positive control), toxicity test, n = 5
  Weight (g) initial: 24.53 ± 0.27 g
Liver and kidney of mice
  Kidney histological presentation: normal architecture
  Liver histological presentation: normal architecture
[2]; [6]
  MnNCE (micronucleated normochromatic erythrocytes): 100.9 ± 11.99
  MnPCE (micronucleated polychromatic erythrocytes): 225.9 ± 8.84
  Others (other abnormalities): 119.2 ± 19.59
  PCE: NCE (polychromatic erythrocytes/normochromatic erythrocytes ratio): 0.51 ± 0.04

## CCCCCCCCCCCCCCCC(=O)O [HA, n-Hexadecanoic acid]
Plasmodium berghei ANKA [3]; 10 mg/kg oral
  MST (days): 15.60 ± 2.62 ^d days
Plasmodium berghei ANKA [3]; 50 mg/kg oral
  MST (days): 9.20 ± 1.16 ^d days
Plasmodium berghei ANKA [3]; 100 mg/kg oral
  MST (days): 11.40 ± 1.6 ^d days
[2]; 2 mg/kg oral, 14 days
  MnNCE (micronucleated normochromatic erythrocytes): 3.42 ± 0.30
  MnPCE (micronucleated polychromatic erythrocytes): 6.25 ± 0.88
[2]; 5 mg/kg oral, 14 days
  MnNCE (micronucleated normochromatic erythrocytes): 3.17 ± 0.74
  MnPCE (micronucleated polychromatic erythrocytes): 9.08 ± 1.30
[2]; 10 mg/kg oral, 14 days
  MnNCE (micronucleated normochromatic erythrocytes): 6.67 ± 2.25
  MnPCE (micronucleated polychromatic erythrocytes): 11.58 ± 2.00
[2]; 50 mg/kg oral, 14 days
  MnNCE (micronucleated normochromatic erythrocytes): 7.19 ± 0.98
  MnPCE (micronucleated polychromatic erythrocytes): 18.86 ± 1.74
[2]; 100 mg/kg oral, 14 days
  MnNCE (micronucleated normochromatic erythrocytes): 8.00 ± 0.84
  MnPCE (micronucleated polychromatic erythrocytes): 23.11 ± 0.58
Plasmodium berghei ANKA [4]; 10 mg/kg oral
  Percentage chemosuppression (%): 71.58%
  Suppressive parasitemia (%): 1.89 ± 0.30^ab %
Plasmodium berghei ANKA [4]; 50 mg/kg oral
  Percentage chemosuppression (%): 83.80%
  Suppressive parasitemia (%): 1.08 ± 0.29 ^a %
Plasmodium berghei ANKA [4]; 100 mg/kg oral
  Percentage chemosuppression (%): 89.74%
  Suppressive parasitemia (%): 0.68 ± 0.18 ^a %
[5]; 10 mg/kg group
  Weight (g) initial: 22.88 ± 0.47 g
  PCV (%) DAY 0: 42.63 ± 1.25%
  Temperature (°C) initial: 32.26 ± 0.33 °C
[5]; 10 mg/kg oral
  Percentage change in PCV (%) DAY 0: 6.00 ± 13.99%
  Percentage change in temperature (%): −6.08 ± 1.60%
  Weight (g) final: 19.24 ± 0.81 g
  PCV (%) DAY 4: 43.75 ± 5.11%
  Percentage change in weight (%): −15.99 ± 2.63%
  Temperature (°C) final: 30.28 ± 0.24 °C
  PCV (%) DAY 9: 23.12 ± 0.46%
  Percentage change in PCV (%) DAY 9: −45.54 ± 3.26%
[5]; 50 mg/kg group
  Weight (g) initial: 24.48 ± 0.71 g
  PCV (%) DAY 0: 46.60 ± 2.88%
  Temperature (°C) initial: 32.20 ± 0.32 °C
[5]; 50 mg/kg oral
  Percentage change in PCV (%) DAY 0: 3.54 ± 3.53%
  Percentage change in temperature (%): −6.56 ± 1.17%
  Weight (g) final: 22.94 ± 1.24 g
  PCV (%) DAY 4: 48.20 ± 3.14%
  Percentage change in weight (%): −6.46 ± 2.75%
  Temperature (°C) final: 30.08 ± 0.37 °C
  PCV (%) DAY 9: 22.93 ± 4.57%
  Percentage change in PCV (%) DAY 9: −51.35 ± 8.51%
[5]; 100 mg/kg group
  Weight (g) initial: 22.19 ± 0.40 g
  PCV (%) DAY 0: 40.94 ± 2.51%
  Temperature (°C) initial: 32.20 ± 0.06 °C
[5]; 100 mg/kg oral
  Percentage change in PCV (%) DAY 0: 5.03 ± 2.78%
  Percentage change in temperature (%): −6.39 ± 1.59%
  Weight (g) final: 19.99 ± 0.31 g
  PCV (%) DAY 4: 43.00 ± 5.03%
  Percentage change in weight (%): −9.77 ± 2.56%
  Temperature (°C) final: 30.14 ± 0.46 °C
  PCV (%) DAY 9: 25.42 ± 12.08%
  Percentage change in PCV (%) DAY 9: −39.10 ± 10.67%
